Source: ChEMBL document CHEMBL1124140, “Oxidants, oxidant drugs, and malaria” (J Med Chem, 1988)

What was measured:
Plasmodium falciparum [1] = assay: In vitro inhibition against Plasmodium falciparum; […]; type: functional, organism-based
Plasmodium falciparum [2] = assay: (§1) Inhibitory activity against Chloroquine-sensitive Plasmodium falciparum; type: functional; conditions: read-out: ED50 (the source's name)
Plasmodium falciparum [3] = assay: Inhibitory activity against Chloroquine-resistant Plasmodium falciparum; type: functional; conditions: read-out: ED50 (the source's name)
Plasmodium falciparum [4] = assay: (§2) In vitro inhibition against Plasmodium falciparum; type: functional, organism-based
Plasmodium falciparum [5] = assay: as §2; type: functional; conditions: read-out: ED50 (the source's name)
Plasmodium falciparum [6] = assay: Inhibitory activity against chloroquine-resistant Plasmodium falciparum; type: functional, organism-based
Plasmodium falciparum [7] = assay: as §1; type: functional, organism-based

C[C@@H]1CC[C@H]2[C@@H](C)C(=O)O[C@@H]3O[C@@]4(C)CC[C@@H]1[C@]32OO4 [ARTEMISININ]
IC50 (Plasmodium falciparum [1]): 4 nM

CC(C)C12CCC(C)(CC1)OO2
EC50 (Plasmodium falciparum [2]): 80 nM | EC50 (Plasmodium falciparum [3]): 210 nM

CC(C)(C)COO
IC50 (Plasmodium falciparum [4]): 41000 nM

CC1=C2[C@H]3OC(=O)[C@@H](C)[C@@H]3CC[C@@]2(C)C=CC1=O [SANTONIN]
EC50 (Plasmodium falciparum [5]): 2800 nM

CC(C)(C)OC(=O)OC1CCC2C[C@@H]3C=CC2(OO3)C1(C)C (some centres not stated)
IC50 (Plasmodium falciparum [6]): 330 nM | IC50 (Plasmodium falciparum [7]): 190 nM
